Our source for the GI50 and TGI values is PubChem BioAssay (NCI).

Holding throughout (assay): NCI tumour cell line growth inhibition, 48 h
For assay [1], the system named is ACHN renal.
For assay [2], the system named is IGROV1 ovarian.
Assay [3] relates to K-562 leukemia.
Assay [4] deals with MOLT-4 leukemia.
The subject of assay [5] is NCI-H226 lung.
Assay [6] relates to OVCAR-5 ovarian.
The subject of assay [7] is OVCAR-8 ovarian.
For assay [8], the system named is SK-MEL-5 melanoma.
For assay [9], the system named is TK-10 renal.
Assay [10] has as its system U251 CNS.

“And” between values parts separate entries of the source, which are not always exact repeats. Equal values may be shown once.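 Cultured in 96-well plates, cells were exposed to test compound for 48 hours across five concentrations. Abbreviation: GI50, concentration required for 50% inhibition of growth. TGI is the concentration that stops growth completely.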 Where only a bound is given, the exact number is not on record here.

Take `CCCn1c(C)nc2c1C(=O)c1ccccc1C2=O`: the GI50 in assay [1] was 37.7 µM; in assay [2], 14.5 µM; in [3] it was 9.87 µM; in assay [4], 19 µM; in assay [5] it was 57.3 µM; in assay [6], more than 100 µM. Further, the GI50 is 31.8 µM in assay [7], 13.4 µM in assay [8], 65.2 µM in [9] and 22.4 µM in [10]. For the same compound, the TGI was more than 100 µM in [1]; 42.1 µM in assay [2]; more than 100 µM in assay [3]; more than 100 µM in [4]; more than 100 µM in assay [5]; more than 100 µM in assay [6]. Further, the TGI was more than 100 µM in assay [7], 27.2 µM in assay [8], more than 100 µM in assay [9] and more than 100 µM in assay [10].

In the case of `Cc1cc2c(C)n(Cc3ccc(Cl)cc3Cl)nc2c(C#N)c1C`, the TGI is more than 100 µM in assay [1]; more than 100 µM in assay [2]; more than 100 µM in [3]; more than 100 µM in [4]; more than 56.2 µM in assay [5]; more than 56.2 µM in assay [6]. The TGI in assay [7] was more than 100 µM; in assay [8], more than 100 µM; in [9], 68.4 µM; in assay [10], more than 61.9 µM.

As to `O=C1C(=O)c2c(nc3ccc(Cl)cn23)-c2ccccc21`, the GI50 in assay [1] is 0.591 µM; in assay [2], 0.646 µM; in assay [3], 0.163 µM; in assay [4], 0.308 µM; in assay [5], 1.65 µM; in assay [6], 0.593 µM. The GI50 was 0.471 µM in assay [7], 0.161 µM in [8], 1.8 µM in [9] and 0.274 µM in [10]. Moreover, the TGI is 1.88 µM in assay [1]; more than 100 µM in [3]; 3.49 µM in [5]; 1.15 µM in assay [6]; 1.91 µM in [7]; 0.309 µM in assay [8]. The TGI was determined as 3.59 µM in assay [9] and 0.721 µM in assay [10].

On to `Cc1ccc(C(=O)Nc2cccc(C(F)(F)F)c2)cc1Nc1nc(-c2cccnc2)nc2c1cnn2C`, for which the GI50 in assay [1] is 2.13 µM and 1.08 µM; in assay [2], 1.74 µM and 0.851 µM; in assay [3], 0.0359 µM and 0.0309 µM; in [4], 1.78 µM and 0.886 µM; in assay [5], 2.3 µM and 1.63 µM; in assay [6] it was 1.36 µM and 0.845 µM. For the same compound, the GI50 was 3 µM and 2.34 µM in [7]; 1.74 µM and 1.24 µM in [8]; 5.9 µM and 2.1 µM in assay [9]; 3.66 µM and 2.9 µM in assay [10]. Besides, the TGI was 11.1 µM and 7.4 µM in assay [1]; 8.71 µM and 5 µM in assay [2]; more than 100 µM in assay [3]; 11 µM and > 10 µM in assay [4]; 7.45 µM and 5.64 µM in assay [5]; 15.1 µM and > 10 µM in assay [6]. Besides, the TGI in assay [7] is 39.7 µM and > 10 µM; in assay [8], 4.06 µM and 2.96 µM; in assay [9] it was 36.6 µM and 6.42 µM; in [10] it was 22 µM and > 10 µM.

Regarding `CCOc1ccc2nc(NC(=O)c3c/c(=N\NC(=O)C[N+](C)(C)C)c4ccc(O)cc4o3)sc2c1`, the TGI in assay [1] stood at 13.8 µM; in assay [2], 8.64 µM; in assay [3] it was 6.08 µM; in assay [4], 5.74 µM; in [5], 12 µM; in assay [6], 7.3 µM. The TGI in [7] was determined as 7.76 µM; in [8], 1.85 µM; in [9] it was 36.5 µM; in assay [10], 10.5 µM.

Turning to `COc1cc2c(cc1OCCCCOc1cc3c(cc1OC)C(=O)N1CCC[C@H]1CN3)N=C[C@@H]1CCCN1C2=O`, the GI50 is 2.62 µM in [1]; 2.42 µM in assay [2]; 0.174 µM in assay [3]; 0.282 µM in assay [4]; 1.94 µM in assay [5]; 3.09 µM in assay [6]. In addition, the GI50 in [7] was 3.37 µM; in assay [8], 0.463 µM; in [9], 1.64 µM; in [10], 0.392 µM. The TGI in assay [1] was 29 µM; in [2], more than 27 µM; in assay [3] it was more than 37.9 µM; in assay [4], more than 100 µM; in [5], 4.49 µM; in assay [6], more than 28.7 µM. The TGI in assay [7] is more than 33.1 µM; in [8] it was 1.62 µM; in assay [9], 8.38 µM; in assay [10] it was more than 100 µM.

Regarding `CCOC(=O)c1oc2ccc(OC)c3c2c1CCC3`, the TGI in [1], in assay [2], in [3], in [4], in assay [5] and in assay [6] was more than 100 µM in each case. Besides, the TGI in assay [7], in assay [8], in assay [9] and in assay [10] was more than 100 µM each time.

As to `c1ccc2c(c1)c(NCCCCN1CCCCC1)cc1c3ccccc3c(NCCCCN3CCCCC3)cc21`, the GI50 in assay [1] was 15.5 µM; in [2], 36.9 µM; in assay [3], 7.85 µM; in [4] it was 6.96 µM; in assay [5], 20.9 µM; in assay [6], 24.3 µM. Moreover, the GI50 is 21.2 µM in assay [7], 15.1 µM in assay [8], 22.1 µM in [9] and 7.67 µM in [10]. The TGI in assay [1] was 30.5 µM; in assay [2] it was more than 100 µM; in [3], more than 100 µM; in assay [4], more than 100 µM; in assay [5] it was 54.9 µM; in [6], 48.9 µM. Further, the TGI came out at 47.2 µM in [7], 31.4 µM in assay [8], 48.9 µM in assay [9] and 29.8 µM in assay [10].

With `Brc1cccc(C2SCc3nc4ccccc4n32)c1` (stereo not drawn), the TGI in assay [1] was more than 100 µM; in [2], 98.9 µM; in [3], more than 100 µM; in [4], more than 100 µM; in assay [5], 27 µM; in [6] it was more than 100 µM. Moreover, the TGI in assay [7] was 60.7 µM; in assay [8], 18.9 µM; in assay [9] it was 65.1 µM; in [10] it was 36.3 µM.
